# In US8741932B2, “Imidazopyridine derivatives” (Piramal Enterprises Limited, priority 2009, dated 2014):
# How the values were obtained:
# IL-6 = experiment: Human monocyte assay, LPS-stimulated IL-6; assay type: cell-based; settings: human monocytes, 1 μg/ml LPS, 5 hours
# Description: The assay was designed as in the reference, Physiol.
# Peripheral blood mononuclear cells (hPBMC) were harvested from human blood and suspended in RPMI 1640 culture medium containing 10% FCS, 100 U/mL penicillin and […] streptomycin (assay medium). Monocytes in the hPBMCs were counted using a Coulter Counter following which the cells were resuspended at 2×10^5 monocytes/mL. A cell suspension containing 2×10^4 monocytes was aliquoted per well of a 96-well plate. Subsequently, the hPBMCs were incubated for 4-5 hours at 37° C., 5% CO2 (During the incubation, the monocytes adhered to the bottom of 96-well plastic culture plate). Following the incubation, the non-adherent lymphocytes were washed with assay medium and the adherent monocytes re-fed with assay medium. After a 48-hour incubation period (37° C., 5% CO2), monocytes were pretreated with various concentrations of representative compounds of present invention (refer to table 6 and 7) (prepared in DMSO) or vehicle (0.5% DMSO) for 30 minutes and stimulated with 1 μg/ml LPS (Escherchia coli 0111:B4, Sigma Chemical Co., St. Louis, Mo.). The incubation was continued for 5 hours at 37° C., 5% CO2. Supernatants were harvested, assayed for IL-6 and TNF-α by ELISA as described by the manufacturer (BD Biosciences, USA). Dexamethasone (10 μM) was used as standard for this assay. […] Biological results for both IL-6 and TNFα are indicated in Table 6 and Table 7 respectively.
# STAT3 = STAT3 bioassay (Hela Stat3-luc, luciferase); assay type: cell-based; settings: Oncostatin M induction
# Description: Cells were seeded (Hela Stat3-luc, ATCC P/N 30-2002) in a white 96 well plate (Nunc cat.no.136101) at a density of 20,000cells/well in 179 μl volume per well (DMEM from Sigma containing 10% FCS). The plate was incubated for 24 hours at 37° C./5% CO2. The cells (wells in triplicates) were then treated with 1 μl/well of 200× stock of the desired compound concentration prepared in 100% DMSO. Curcumin was used as a standard or positive control, added 10 μg/ml in triplicate. DMSO was used as medium control (1 μl/well added in triplicates). The plate was incubated at 37° C./5% CO2 for 1 hour. 20 μl/well Oncostatin M (Oncostatin M, Human, Recombinant, E. coli, Cat.No. 496260, 10 μg from Calbiochem) was added to treated wells, induction control (in triplicate) (1000 ng/ml stock prepared in serum free medium to get final concentration 100 ng/ml). The plate was then incubated for 7-8 hours at 37° C./5% CO2 for induction. A typical assay would consist of triplicate of medium control, triplicate of induction control, triplicate of positive/standard control and test compounds at desired concentration in triplicates. For termination Luciferase assay protocol was followed where the culture medium was removed from all the wells.
# 200 μl well of PBS was added to remove traces of medium and compound. The PBS was discarded. 40 μl/well of 1× lysis buffer was added to all the wells. The plate was incubated at RT for 20 minutes with intermittent shaking. 100 μl/well of LAB reagent was added to all the wells in dark. {LAB reagent for 1 plate=8 ml Luciferase assay buffer (LAB)+1 ml Coenzyme A (Sigma cat no. C3019) (2.1 mg/ml stock in LAB)+530 μL of ATP (Sigma cat.no.A2383) (5.85 mg/ml stock in LAB)+1 ml luciferin reagent (Promega cat no.245355) (2 mg/ml stock in LAB, protect from light)}.
# The luminescence was immediately read on polar star. The values were expressed as percentage inhibition, in terms of treated values to that STAT3 (induction control). IC50 values were calculated from graphs using these percentages.
# PI3Kα kinase = target: T1, PI3Kα kinase (Homo sapiens, UniProt P42336); experiment: Kinase assay (PI3Kα); assay type: biochemical; settings: read-out: IC50 (μM) for PI3K inhibition
# T1 construct: purchased Millipore, USA
# T1 sequence (P42336 whole entry): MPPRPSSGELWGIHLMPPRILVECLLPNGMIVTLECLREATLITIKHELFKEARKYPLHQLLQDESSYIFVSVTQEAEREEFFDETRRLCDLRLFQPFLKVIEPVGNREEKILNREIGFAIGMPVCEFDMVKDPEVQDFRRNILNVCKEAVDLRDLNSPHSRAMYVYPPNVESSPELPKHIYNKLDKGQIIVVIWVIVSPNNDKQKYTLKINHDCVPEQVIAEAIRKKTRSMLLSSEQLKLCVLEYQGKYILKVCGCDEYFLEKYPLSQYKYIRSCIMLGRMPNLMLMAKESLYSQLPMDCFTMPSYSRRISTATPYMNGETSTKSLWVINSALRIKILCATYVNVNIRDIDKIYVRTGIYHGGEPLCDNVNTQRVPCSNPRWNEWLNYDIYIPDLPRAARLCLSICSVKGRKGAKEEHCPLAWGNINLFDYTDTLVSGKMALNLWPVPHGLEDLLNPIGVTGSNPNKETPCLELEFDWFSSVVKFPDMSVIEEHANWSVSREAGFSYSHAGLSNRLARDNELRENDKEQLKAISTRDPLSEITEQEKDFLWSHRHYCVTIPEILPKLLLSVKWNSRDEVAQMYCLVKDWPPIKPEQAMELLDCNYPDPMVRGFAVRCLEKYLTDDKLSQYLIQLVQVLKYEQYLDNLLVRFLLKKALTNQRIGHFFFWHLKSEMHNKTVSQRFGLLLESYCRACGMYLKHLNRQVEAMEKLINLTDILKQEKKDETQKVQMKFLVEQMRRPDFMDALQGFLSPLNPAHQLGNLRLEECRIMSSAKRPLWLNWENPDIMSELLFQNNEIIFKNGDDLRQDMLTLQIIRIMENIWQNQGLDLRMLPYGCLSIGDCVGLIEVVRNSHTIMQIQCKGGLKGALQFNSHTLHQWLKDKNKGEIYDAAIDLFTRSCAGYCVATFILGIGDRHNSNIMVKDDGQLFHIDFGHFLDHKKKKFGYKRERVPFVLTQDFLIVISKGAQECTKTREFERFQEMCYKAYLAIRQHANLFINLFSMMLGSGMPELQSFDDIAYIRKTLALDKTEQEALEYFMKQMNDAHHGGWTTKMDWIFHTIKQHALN
# T1 sequence (P27986 whole entry partner): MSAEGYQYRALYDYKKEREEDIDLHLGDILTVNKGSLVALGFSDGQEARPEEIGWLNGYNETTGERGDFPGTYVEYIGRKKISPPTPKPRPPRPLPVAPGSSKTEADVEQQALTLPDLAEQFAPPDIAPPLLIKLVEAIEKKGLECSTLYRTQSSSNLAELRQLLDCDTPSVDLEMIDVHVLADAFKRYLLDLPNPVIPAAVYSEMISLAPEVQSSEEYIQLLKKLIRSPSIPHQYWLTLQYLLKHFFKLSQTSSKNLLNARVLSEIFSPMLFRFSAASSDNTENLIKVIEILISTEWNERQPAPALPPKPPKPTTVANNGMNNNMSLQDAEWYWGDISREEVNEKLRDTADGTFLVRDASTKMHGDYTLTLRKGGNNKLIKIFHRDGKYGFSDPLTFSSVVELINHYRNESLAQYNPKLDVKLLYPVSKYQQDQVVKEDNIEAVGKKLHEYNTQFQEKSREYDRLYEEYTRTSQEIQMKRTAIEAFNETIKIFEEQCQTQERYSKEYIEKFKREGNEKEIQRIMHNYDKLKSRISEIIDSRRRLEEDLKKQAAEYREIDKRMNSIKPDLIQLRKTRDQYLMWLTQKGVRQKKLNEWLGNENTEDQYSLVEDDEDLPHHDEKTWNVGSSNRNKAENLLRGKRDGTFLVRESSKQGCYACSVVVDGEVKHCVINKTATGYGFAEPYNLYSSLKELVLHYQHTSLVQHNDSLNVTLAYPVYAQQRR
# Description: The kinase reaction was carried out in a 25 μL volume in a 1.5 mL microcentrifuge tube. The reaction mixture consisted of kinase buffer (10 mM Hepes, pH 7.5, 50 mM MgCl2), 20 ng PI3Kα kinase (Millipore, USA), 12.5 μg phosphotidylinositol (PI), 10 μM ATP and 1 μCi ^32γ P […]. […] The reactions were incubated at 30° C. for 20 minutes and were terminated by adding 1:1 mixture of MeOH and CHCl3. The tube contents were mixed on a vortex mixer and centrifuged at 10000 rpm for 2 minutes. 10 μL of the organic (lower) phase was spotted on to a TLC plate (silica, mobile phase: n-propanol and 2 M glacial acetic acid in 65:35 ratio). The plates were dried and exposed to an X-ray film. The bands appearing as a result of ^32γ P incorporation in PI were quantitated using the Quantityl)ne (BioRad, USA) densitometry program. PI-103 (Calbiochem, USA) was used as a standard.
# A549 = experiment: Cytotoxicity assay (propidium iodide), A549; assay type: cell-based; settings: A549 (C1a, lung), 48 hours
# Description: (§1) Cells from cell lines as mentioned in the table given below were seeded at a density of 3000 cells/well in a white opaque 96-well plate. Following incubation at 37° C./5% CO2 for a period of 18-24 hours, the cells were treated with various concentrations (stock solution was prepared in DMSO and subsequent dilutions were made in media as per ATCC guidelines) of the representative compounds of present invention (refer table 3) for a period of 48 hours. At the end of treatment, the spent culture medium was discarded, the cells were washed with 1×PBS and 200 μl of 7 μg/ml propidium iodide was added to each well. The plates were frozen at −70° C. for at least 24 hours. For analysis, the plates were brought to RT, allowed to thaw and were read in PolarStar fluorimeter with the fluorescence setting. The percentage of viable cells in the non treated set of wells was considered to be 100 and the percentage viability following treatment was calculated accordingly. IC50 values were calculated from graphs plotted using these percentages.
# H460 = experiment: Cytotoxicity assay (propidium iodide), H460; assay type: cell-based; settings: H460 (C1b, lung), 48 hours
# Description: as §1
# A2780 = experiment: Cytotoxicity assay (propidium iodide), A2780; assay type: cell-based; settings: for inhibition at 1 µM / % inhibition at 1 μM: A2780 (C3a)
# Description: as §1
# PC3 = experiment: Cytotoxicity assay (propidium iodide), PC3; settings: for inhibition at 1 µM: Homo sapiens, PC-3, read-out: % inhibition at 1 μM; for % inhibition at 1 μM: PC3 (C2a)
compound,measurement,setting,value
"Cc1cc(S(=O)(=O)N(C)N=Cc2cnc3ccc(-c4cccnc4)cn23)ccc1Br [Example 22, 4-Bromo-N, 3-dimethyl-N′-((6-(pyridine-3-yl)imidazo[1,2-a]pyridine-3-yl)methylene) benzenesulfonohydrazide]",IC50,IL-6; Monocyte,≥ 5 µM
same,IC50,STAT3; Homo sapiens,0.1 to 5 µM
same,IC50,PI3Kα kinase,0.01 to 0.5 µM
"Cc1ccccc1S(=O)(=O)N(C)/N=C/c1cnc2ccc(-c3cccnc3)cn12 [Example 53, (E)-N, 2-dimethyl-N′-((6-(pyridin-3-yl)imidazo[1,2-a]pyridin-3-yl)methylene)benzenesulfonohydrazide]",IC50,A549; Homo sapiens,0.01 to 5 µM
same,IC50,IL-6; Monocyte,0.001 to 5 µM
same,IC50,"H460; Homo sapiens, NCI-H460",0.01 to 5 µM
"CN(/N=C/c1cnc2ccc(-c3cccnc3)cn12)S(=O)(=O)c1ccccc1OC(F)(F)F [Example 54, (E)-N-methyl-N′-((6-(pyridin-3-yl)imidazo[1,2-a]pyridin-3-yl)methylene)-2-(trifluoromethoxy)benzenesulfonohydrazide]",IC50,A549; Homo sapiens,0.01 to 5 µM
same,IC50,IL-6; Monocyte,0.001 to 5 µM
same,IC50,"H460; Homo sapiens, NCI-H460",0.01 to 5 µM
"CN(/N=C/c1cnc2ccc(-c3cccnc3)cn12)S(=O)(=O)c1cc(C(F)(F)F)ccc1Cl [Example 65, (E)-2-chloro-N-methyl-N′-((6-(pyridin-3-yl)imidazo[1,2-a]pyridin-3-yl)methylene)-5-(trifluoromethyl)benzenesulfonohydrazide]",IC50,A549; Homo sapiens,0.01 to 5 µM
same,IC50,IL-6; Monocyte,0.001 to 5 µM
same,IC50,"H460; Homo sapiens, NCI-H460",0.01 to 5 µM
"COc1ccc(F)cc1S(=O)(=O)N(C)/N=C/c1cnc2ccc(-c3cccnc3F)cn12 [Example 88, (E)-5-Fluoro-N′-((6-(2-fluoropyridin-3-yl)imidazo[1,2-a]pyridin-3-yl)methylene)-2-methoxy-N-methylbenzenesulfonohydrazide]",IC50,A549; Homo sapiens,0.01 to 5 µM
same,IC50,IL-6; Monocyte,0.001 to 5 µM
same,IC50,"H460; Homo sapiens, NCI-H460",0.01 to 5 µM
"COc1ccc(Br)cc1S(=O)(=O)N(C)/N=C/c1cnc2ccc(-c3cccnc3F)cn12 [Example 91, (E)-5-bromo-N′-((6-(2-fluoropyridin-3-yl)imidazo[1,2-a]pyridin-3-yl)methylene)-2-methoxy-N-methylbenzenesulfonohydrazide]",inhibition at 1 µM,A2780; Homo sapiens,> 50%
same,inhibition at 1 µM,PC3,> 50%
"Cc1ccc(F)cc1S(=O)(=O)N(C)/N=C/c1cnc2c(C)cc(-c3cccnc3)cn12 [Example 100, (E)-5-Fluoro-N,2-dimethyl-N′-((8-methyl-6-(pyridin-3-yl)imidazo[1,2-a]pyridin-3-yl)methylene)benzenesulfonohydrazide]",IC50,A549; Homo sapiens,0.01 to 5 µM
same,IC50,"A2780; Homo sapiens, A2780 (C3a, ovarian), 48 hours",0.01 to 5 µM
same,IC50,"H460; Homo sapiens, NCI-H460",0.01 to 5 µM
same,IC50,PI3Kα kinase,0.01 to 0.5 µM
"Cc1ccc(NC(=O)N(C)/N=C/c2cnc3ccc(-c4cccnc4)cn23)cc1 [Example 142, (E)-1-methyl-2-((6-(pyridin-3-yl)imidazo[1,2-a]pyridin-3-yl)methylene)-N-p-tolylhydrazinecarboxamide]",IC50,IL-6; Monocyte,≥ 5 µM
same,inhibition at 1 µM,A2780; Homo sapiens,30 to 50%
same,inhibition at 1 µM,PC3,30 to 50%
"Cc1ccc(F)c(NC(=O)N(C)/N=C/c2cnc3ccc(-c4cccnc4)cn23)c1 [Example 143, (E)-N-(2-fluoro-5-methylphenyl)-1-methyl-2-((6-(pyridin-3-yl)imidazo[1,2-a]pyridin-3-yl)methylene)hydrazinecarboxamide]",IC50,IL-6; Monocyte,0.001 to 5 µM
same,inhibition at 1 µM,A2780; Homo sapiens,30 to 50%
same,inhibition at 1 µM,PC3,30 to 50%
"Cc1ccc(F)cc1NC(=O)N(C)/N=C/c1cnc2ccc(-c3cccnc3)cn12 [Example 144, (E)-N-(5-fluoro-2-methylphenyl)-1-methyl-2-((6-(pyridin-3-yl)imidazo[1,2-a]pyridin-3-yl)methylene)hydrazinecarboxamide]",IC50,IL-6; Monocyte,≥ 5 µM
same,inhibition at 1 µM,A2780; Homo sapiens,30 to 50%
same,inhibition at 1 µM,PC3,30 to 50%
"CN(N=Cc1cnc2ccc(Br)cn12)C(=O)NCc1ccccc1 [Example 145, N-benzyl-2-((6-bromoimidazo[1,2-a]pyridin-3-yl)methylene)-1-methylhydrazinecarboxamide]",IC50,IL-6; Monocyte,0.001 to 5 µM
Cc1ccc(F)c(NC(=O)N(C)N=Cc2cnc3ccc(Br)cn23)c1 [Example 146],IC50,IL-6,≥ 5 µM
same,% inhibition at 1 μM,A2780,++ (% Inhibition >50%)
same,% inhibition at 1 μM,PC3,++ (% Inhibition >50%)
CN(/N=C/c1cnc2ccc(-c3cccnc3)cn12)C(=S)NCCN1CCOCC1 [Example 148],IC50,IL-6,≥ 5 µM
"CN(/N=C/c1cnc2ccc(-c3cccnc3)cn12)C(=S)Nc1ccc(C#N)cc1 [Example 149, (E)-N-(4-cyanophenyl)-1-methyl-2-((6-(pyridin-3-yl)imidazo[1,2-a]pyridin-3-yl)methylene)hydrazinecarbothioamide]",IC50,IL-6; Monocyte,≥ 5 µM
same,inhibition at 1 µM,A2780; Homo sapiens,30 to 50%
same,inhibition at 1 µM,PC3,30 to 50%
"COc1ccc(NC(=S)N(C)/N=C/c2cnc3ccc(-c4cccnc4)cn23)cc1 [Example 150, (E)-N-(4-methoxyphenyl)-1-methyl-2-((6-(pyridin-3-yl)imidazo[1,2-a]pyridin-3-yl)methylene)hydrazinecarbothioamide]",IC50,IL-6; Monocyte,≥ 5 µM
same,inhibition at 1 µM,A2780; Homo sapiens,30 to 50%
same,inhibition at 1 µM,PC3,30 to 50%
"CN(N=Cc1cnc2ccc(Br)cn12)C(=S)NCCN1CCOCC1 [Example 151, 2-((6-bromoimidazo[1,2-a]pyridin-3-yl)methylene)-1-methyl-N-(2-morpholinoethyl) hydrazinecarbothioamide]",IC50,IL-6,0.001 to 5 µM
"CN(N=Cc1cnc2ccc(Br)cn12)C(=S)Nc1ccc(C(F)(F)F)cc1 [Example 152, 2-((6-bromoimidazo[1,2-a]pyridin-3-yl)methylene)-1-methyl-N-(4-(trifluoromethyl)phenyl) hydrazinecarbothioamide]",IC50,IL-6,0.001 to 5 µM
same,% inhibition at 1 μM,A2780,+ (50% ≧ % Inhibition ≧ 30%)
same,% inhibition at 1 μM,PC3,+ (50% ≧ % Inhibition ≧ 30%)
"(E)-5-fluoro-N′-((6-(5-fluoropyridin-3-yl) imidazo[1,2-a]pyridin-3-yl)methylene)-N, 2-dimethylbenzenesulfonohydrazide [Example 132]",IC50,A549,0.01 to 5 µM
same,IC50,H460,0.01 to 5 µM
"N-methyl-1-phenyl-N′-((6-pyridin-3-yl) imidazo[1,2-a]pyridine-3-yl) methylene)benzenesulfonohydrazide [Example 28]",IC50,IL-6,0.001 to 5 µM
same,IC50,STAT3,> 10 µM
